How the values were obtained:
[1] = system: antibodies in sera from SARS patients (sera 1a, 1b, 2, 6, 37, 62, London, SARS-yellow, SARS-green); assay type: binding, human; set-up: Binding of serum 6 to linear peptides of protein X1 of SARS-CoV Urbani / Binding of serum 37 to linear peptides of protein X1 of SARS-CoV Urbani / Binding of serum 6 to looped/cyclic peptide (PEPSCAN-ELISA) / Binding of serum 37 to looped/cyclic peptide (PEPSCAN-ELISA) / Binding of serum 37 to looped/cyclic peptides of protein X1 of SARS-CoV Urbani / Binding of serum 6 to linear peptides of protein X2 / Binding of serum 37 to linear peptides of protein X2 / Binding of serum 37 to looped/cyclic peptides of protein X2 of SARS-CoV Urbani / Binding of serum 6 to linear peptides of protein M of SARS-CoV Urbani / Binding of serum 37 to linear peptides of protein M of SARS-CoV Urbani / Binding of serum 6 to looped/cyclic peptides of protein M of SARS-CoV Urbani / Binding of serum 37 to looped/cyclic peptides of protein M of SARS-CoV Urbani / Binding of serum 6 to linear peptides of protein X3 of SARS-CoV Urbani / Binding of serum 37 to linear peptides of protein X3 of SARS-CoV Urbani / Binding of serum 37 to looped/cyclic peptides of protein X3 of SARS-CoV Urbani / Binding of serum 6 to linear peptides of protein X4 of SARS-CoV Urbani / Binding of serum 37 to linear peptides of protein X4 of SARS-CoV Urbani / Binding of serum 37 to looped/cyclic peptides of protein X4 of SARS-CoV Urbani / Binding of serum 6 to linear peptides of protein X5 of SARS-CoV Urbani / Binding of serum 37 to linear peptides of protein X5 of SARS-CoV Urbani / Binding of serum 37 to looped/cyclic peptides of protein X5 of SARS-CoV Urbani / Binding of serum 6 to linear peptides of protein N of SARS-CoV Urbani / Binding of serum 37 to linear peptides of protein N of SARS-CoV Urbani / Binding of serum 6 to linear peptide (PEPSCAN-ELISA) / Binding of serum 1a to looped/cyclic peptides of protein N of SARS-CoV Urbani / Binding of serum 1b to looped/cyclic peptides of protein N of SARS-CoV Urbani / Binding of serum 2 to looped/cyclic peptides of protein N of SARS-CoV Urbani / Binding of serum 6 to looped/cyclic peptides of protein N of SARS-CoV Urbani / Binding of serum 37 to looped/cyclic peptides of protein N of SARS-CoV Urbani / Binding of serum 62 to looped/cyclic peptides of protein N of SARS-CoV Urbani / Binding of serum London to looped/cyclic peptides of protein N of SARS-CoV Urbani / Binding of serum SARS-green to looped/cyclic peptides of protein N of SARS-CoV Urbani: unit not given here
[2] = system: control sera (pooled serum of ten healthy LUMC hospital workers; commercial negative donor pooled serum from the Dutch bloodbank); assay type: binding, human; set-up: Binding of Control serum LUMC to linear peptides / Binding of Control serum Blood-bank to linear peptides / Binding of Control serum LUMC to looped peptides / Binding of Control Serum Blood-Bank to Looped peptides / Binding of Control serum LUMC to linear peptides of the protein M of SARS-CoV Urbani / Binding of Control serum Blood-bank to linear peptides of the protein M of SARS-CoV Urbani / Binding of Control serum LUMC to looped peptides of the protein M of SARS-CoV Urbani / Binding of Control Serum Blood-Bank to Looped peptides of the protein M of SARS-CoV Urbani: unit not given here
[3] = system: rabbit serum obtained by immunizing a rabbit with the SARS-CoV strain Frankfurt 1; assay type: binding; set-up: Binding of a rabbit serum to linear peptides / Binding of a rabbit serum to looped peptides / Rabbit serum linear peptides / Rabbit serum looped peptides / Binding of a rabbit serum to linear peptides of protein N of SARS-CoV Urbani (Rabbit serum linear peptides) / Binding of a rabbit serum to looped/cyclic peptides of protein N of SARS-CoV Urbani (Rabbit serum looped peptides): unit not given here

## NLLLLFVTIYSHLLL
[1]
  Binding of serum 1a to linear peptides of protein X1 of SARS-CoV Urbani: 0.7
  Binding of serum 1a to looped/cyclic peptide (PEPSCAN-ELISA): 0.5
  Binding of serum 1b to linear peptides of protein X1 of SARS-CoV Urbani: 0.5
  Binding of serum 1b to looped/cyclic peptide (PEPSCAN-ELISA): 0.4
  Binding of serum 2 to linear peptides of protein X1 of SARS-CoV Urbani: 0.5
  Binding of serum 2 to looped/cyclic peptide (PEPSCAN-ELISA): 0.4
  Binding of serum 6 to linear peptides of protein X1 of SARS-CoV Urbani: 0.4
  Binding of serum 6 to looped/cyclic peptide (PEPSCAN-ELISA): 0.2
  Binding of serum 37 to linear peptides of protein X1 of SARS-CoV Urbani: 0.5
  Binding of serum 37 to looped/cyclic peptide (PEPSCAN-ELISA): 0.4
  Binding of serum 62 to linear peptides of protein X1 of SARS-CoV Urbani: 0.4
  Binding of serum 62 to looped/cyclic peptide (PEPSCAN-ELISA): 0.5
  Binding of serum London to linear peptides of protein X1 of SARS-CoV Urbani: 0.2
  Binding of serum London to looped/cyclic peptide (PEPSCAN-ELISA): 0.2
  Binding of serum SARS-green to linear peptides of protein X1 of SARS-CoV Urbani: 0.1
  Binding of serum SARS-green to looped/cyclic peptide (PEPSCAN-ELISA): 0.2
  Binding of serum SARS-yellow to linear peptides of protein X1 of SARS-CoV Urbani: 0.3
  Binding of serum SARS-yellow to looped/cyclic peptide (PEPSCAN-ELISA): 0.4
[2]
  Binding of Control Serum Blood-Bank to Looped peptides: 0.5
  Binding of Control serum Blood-bank to linear peptides: 0.4
  Binding of Control serum LUMC to linear peptides: 0.5
  Binding of Control serum LUMC to looped peptides: 0.6
[3]
  Binding of a rabbit serum to linear peptides: 0.2
  Binding of a rabbit serum to looped peptides: 0.6

## FAFACADGTRHTYQL
[1]
  Binding of serum 1a to linear peptides of protein X4 of SARS-CoV Urbani: 0.7
  Binding of serum 1a to looped/cyclic peptides of protein X4 of SARS-CoV Urbani: 0.8
  Binding of serum 1b to linear peptides of protein X4 of SARS-CoV Urbani: 0.5
  Binding of serum 1b to looped/cyclic peptides of protein X4 of SARS-CoV Urbani: 0.5
  Binding of serum 2 to linear peptides of protein X4 of SARS-CoV Urbani: 0.3
  Binding of serum 2 to looped/cyclic peptides of protein X4 of SARS-CoV Urbani: 0.9
  Binding of serum 6 to linear peptides of protein X4 of SARS-CoV Urbani: 0.5
  Binding of serum 6 to looped/cyclic peptides of protein X4 of SARS-CoV Urbani: 0.5
  Binding of serum 37 to linear peptides of protein X4 of SARS-CoV Urbani: 0.6
  Binding of serum 37 to looped/cyclic peptides of protein X4 of SARS-CoV Urbani: 0.6
  Binding of serum 62 to linear peptides of protein X4 of SARS-CoV Urbani: 0.7
  Binding of serum 62 to looped/cyclic peptides of protein X4 of SARS-CoV Urbani: 0.5
  Binding of serum London to linear peptides of protein X4 of SARS-CoV Urbani: 0.6
  Binding of serum London to looped/cyclic peptides of protein X4 of SARS-CoV Urbani: 0.2
  Binding of serum SARS-green to linear peptides of protein X4 of SARS-CoV Urbani: 0.4
  Binding of serum SARS-green to looped/cyclic peptides of protein X4 of SARS-CoV Urbani: 0.5
  Binding of serum SARS-yellow to linear peptides of protein X4 of SARS-CoV Urbani: 0.2
  Binding of serum SARS-yellow to looped/cyclic peptides of protein X4 of SARS-CoV Urbani: 0.4
[2]
  Binding of Control Serum Blood-Bank to Looped peptides: 0.8
  Binding of Control serum Blood-bank to linear peptides: 0.7
  Binding of Control serum LUMC to linear peptides: 0.5
  Binding of Control serum LUMC to looped peptides: 0.7
[3]
  Rabbit serum linear peptides: 0.5
  Rabbit serum looped peptides: 0.1

## CLKILVRYNTRGNTY
[1]
  Binding of serum 1a to linear peptides of protein X5 of SARS-CoV Urbani: 0.7
  Binding of serum 1a to looped/cyclic peptides of protein X5 of SARS-CoV Urbani: 0.5
  Binding of serum 1b to linear peptides of protein X5 of SARS-CoV Urbani: 0.7
  Binding of serum 1b to looped/cyclic peptides of protein X5 of SARS-CoV Urbani: 0.2
  Binding of serum 2 to linear peptides of protein X5 of SARS-CoV Urbani: 0.8
  Binding of serum 2 to looped/cyclic peptides of protein X5 of SARS-CoV Urbani: 0.5
  Binding of serum 6 to linear peptides of protein X5 of SARS-CoV Urbani: 0.8
  Binding of serum 6 to looped/cyclic peptides of protein X5 of SARS-CoV Urbani: 0.4
  Binding of serum 37 to linear peptides of protein X5 of SARS-CoV Urbani: 0.7
  Binding of serum 37 to looped/cyclic peptides of protein X5 of SARS-CoV Urbani: 0.5
  Binding of serum 62 to linear peptides of protein X5 of SARS-CoV Urbani: 0.8
  Binding of serum 62 to looped/cyclic peptides of protein X5 of SARS-CoV Urbani: 0.7
  Binding of serum London to linear peptides of protein X5 of SARS-CoV Urbani: 0.7
  Binding of serum London to looped/cyclic peptides of protein X5 of SARS-CoV Urbani: 0.2
  Binding of serum SARS-green to linear peptides of protein X5 of SARS-CoV Urbani: 0.7
  Binding of serum SARS-green to looped/cyclic peptides of protein X5 of SARS-CoV Urbani: 0.4
  Binding of serum SARS-yellow to linear peptides of protein X5 of SARS-CoV Urbani: 0.3
  Binding of serum SARS-yellow to looped/cyclic peptides of protein X5 of SARS-CoV Urbani: 0.8
[2]
  Binding of Control Serum Blood-Bank to Looped peptides: 0.4
  Binding of Control serum Blood-bank to linear peptides: 0.8
  Binding of Control serum LUMC to linear peptides: 0.4
  Binding of Control serum LUMC to looped peptides: 0.6
[3]
  Rabbit serum linear peptides: 1.1
  Rabbit serum looped peptides: 0.2

## SPKFTTSLSLHKLLQ
[1]
  Binding of serum 1a to linear peptides of protein X2: 0.6
  Binding of serum 1a to looped/cyclic peptides of protein X2 of SARS-CoV Urbani: 0.5
  Binding of serum 1b to linear peptides of protein X2: 0.4
  Binding of serum 1b to looped/cyclic peptides of protein X2 of SARS-CoV Urbani: 0.5
  Binding of serum 2 to linear peptides of protein X2: 0.4
  Binding of serum 2 to looped/cyclic peptides of protein X2 of SARS-CoV Urbani: 0.3
  Binding of serum 6 to linear peptides of protein X2: 0.4
  Binding of serum 6 to looped/cyclic peptides of protein X2 of SARS-CoV Urbani: 0.4
  Binding of serum 37 to linear peptides of protein X2: 0.5
  Binding of serum 37 to looped/cyclic peptides of protein X2 of SARS-CoV Urbani: 0.3
  Binding of serum 62 to linear peptides of protein X2: 0.5
  Binding of serum 62 to looped/cyclic peptides of protein X2 of SARS-CoV Urbani: 0.5
  Binding of serum London to linear peptides of protein X2: 0.4
  Binding of serum London to looped/cyclic peptides of protein X2 of SARS-CoV Urbani: 0.2
  Binding of serum SARS-green to linear peptides of protein X2: 0.5
  Binding of serum SARS-green to looped/cyclic peptides of protein X2 of SARS-CoV Urbani: 0.2
  Binding of serum SARS-yellow to linear peptides of protein X2: 0.3
  Binding of serum SARS-yellow to looped/cyclic peptides of protein X2 of SARS-CoV Urbani: 0.3
[2]
  Binding of Control Serum Blood-Bank to Looped peptides: 0.5
  Binding of Control serum Blood-bank to linear peptides: 0.5
  Binding of Control serum LUMC to linear peptides: 0.3
  Binding of Control serum LUMC to looped peptides: 0.6
[3]
  Binding of a rabbit serum to linear peptides: 0.3
  Binding of a rabbit serum to looped peptides: 0.5

## KTHRMCKYTQSTALQ
[1]
  Binding of serum 1a to linear peptides of protein X2: 0.7
  Binding of serum 1a to looped/cyclic peptides of protein X2 of SARS-CoV Urbani: 0.4
  Binding of serum 1b to linear peptides of protein X2: 0.5
  Binding of serum 1b to looped/cyclic peptides of protein X2 of SARS-CoV Urbani: 0.4
  Binding of serum 2 to linear peptides of protein X2: 0.6
  Binding of serum 2 to looped/cyclic peptides of protein X2 of SARS-CoV Urbani: 0.2
  Binding of serum 6 to linear peptides of protein X2: 0.5
  Binding of serum 6 to looped/cyclic peptides of protein X2 of SARS-CoV Urbani: 0.4
  Binding of serum 37 to linear peptides of protein X2: 0.7
  Binding of serum 37 to looped/cyclic peptides of protein X2 of SARS-CoV Urbani: 0.2
  Binding of serum 62 to linear peptides of protein X2: 0.6
  Binding of serum 62 to looped/cyclic peptides of protein X2 of SARS-CoV Urbani: 0.4
  Binding of serum London to linear peptides of protein X2: 0.5
  Binding of serum London to looped/cyclic peptides of protein X2 of SARS-CoV Urbani: 0.2
  Binding of serum SARS-green to linear peptides of protein X2: 0.5
  Binding of serum SARS-green to looped/cyclic peptides of protein X2 of SARS-CoV Urbani: 0.2
  Binding of serum SARS-yellow to linear peptides of protein X2: 0.8
  Binding of serum SARS-yellow to looped/cyclic peptides of protein X2 of SARS-CoV Urbani: 0.2
[2]
  Binding of Control Serum Blood-Bank to Looped peptides: 0.5
  Binding of Control serum Blood-bank to linear peptides: 0.6
  Binding of Control serum LUMC to linear peptides: 0.5
  Binding of Control serum LUMC to looped peptides: 0.4
[3]
  Binding of a rabbit serum to linear peptides: 0.3
  Binding of a rabbit serum to looped peptides: 0.3
